For data set [1] the following is noted: cited from earlier work.
A short description of data set [2]: Solubility of KTZ, shake-flask method. It counts as physicochemical. Particulars: for solubility at 24 h: 25 °C; for Improvement of KTZ solubility by TTO: 5% TTO. The method, then:
Mixtures were mechanically shaken for 24 h at 25 °C ± 0.5 °C and allowed to stand for 24 h to attain equilibrium. Then, the samples were centrifuged at 4000 rpm for 15 min, followed by filtration through a CA membrane filter (0.45 μm), diluted appropriately with methanol, and analyzed by the HPLC method at 231 nm against a standard.

Converted amounts (≈) assume the structure as drawn.

`CC(=O)N1CCN(c2ccc(OCC3COC(Cn4ccnc4)(c4ccc(Cl)cc4Cl)O3)cc2)CC1` (centres unmarked) [KTZ, Ketoconazole]: in data set [1], the Solubility in water was 0.0866 to 40.0 µg/mL. In addition, in data set [1], the “pH of highest stability” value was 6–8. Also, the solubility (as a rule, how much of the substance goes into solution per volume) at 24 h amounted to 93.5 ± 8.39 µg/mL (≈ 176 µM) in data set [2] (Castor oil); 94 ± 3.26 µg/mL (≈ 177 µM) in data set [2] (Isopropyl myristate); 17 ± 2.84 µg/mL (≈ 32 µM) in data set [2] (Paraffin oil); 9.56 ± 0.09 µg/mL (≈ 18 µM) in data set [2] (Water); 155 ± 7.94 µg/mL in data set [2] (castor oil with 5% TTO, oil or lipid, thermodynamic from solid, Castor oil + TTO 5%); 131 ± 5.13 µg/mL in data set [2] (isopropyl myristate with 5% TTO, oil or lipid, thermodynamic from solid, Isopropyl myristate + TTO 5%). The solubility at 24 h in data set [2] (paraffin oil with 5% TTO, Paraffin oil + TTO 5%) came to 80.1 ± 6.5 µg/mL; in data set [2] (water with 5% TTO, aqueous with cosolvent or surfactant or cyclodextrin, thermodynamic from solid, Water + TTO 5%) it was 35.7 ± 4.59 µg/mL. The “Improvement of KTZ solubility by TTO” value is “about 2 fold” in data set [2] (castor oil), “about 2 fold” in data set [2] (isopropyl myristate), 5 fold in data set [2] (paraffin oil) and around 4 fold in data set [2] (water).
